The values below are quoted from earlier work in patent US20090012085A1, “DOSAGE FORMS AND METHODS OF TREATMENT USING A TYROSINE KINASE INHIBITOR” (priority 2005, published 2009).

The data set has as its system solid and hematopoietic cancer xenograft models. As to conditions: diverse preclinical solid and hematopoietic cancer xenograft models; cited from earlier work.

As to `Cc1[nH]c(/C=C2\C(=O)Nc3ccc(F)cc32)c(C)c1C(=O)NC[C@H](O)CN1CCOCC1` [compound 1, 5-[(Z)-(5-fluoro-2-oxo-1,2-dihydro-3H-indol-3-ylidene)methyl]-N-[(2S)-2-hydroxy-3-morpholin-4-ylpropyl]-2,4-dimethyl-1H-pyrrole-3-carboxamide], the anti-tumor activity result was “has anti-tumor activity”.
